One assay has as its target GCN2 kinase (Homo sapiens, UniProt Q9P2K8). Briefly: GCN2 enzyme inhibition assay (Transcreener ADP2 fluorescence polarization). Format: biochemical. The conditions noted are these: 280 μM ATP. A digest of the protocol:
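Run at 25 °C in 25 mM Tris-HCl pH 7.5, 50 mM NaCl, 10 mM MgCl2, 1 mM DTT with 4 nM GCN2, 280 μM ATP and 200 μM (RS)7 peptide; compound (0–8 μM final) preincubated 10 min, reaction 1 h. ADP read by antibody/tracer FP; IC50 and Ki(app) from tight-binding fit.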
(In general: Polarisation of emitted light reports the rotation of a fluorescent probe.)

The target in assay [1] is intracellular GCN2 (phosphorylation of the GCN2 substrate eIF2α) (Homo sapiens, UniProt Q9P2K8). Nature of the assay: GCN2 cellular inhibition assay (AlphaScreen SureFire P-eIF2α Ser51, borrelidin-treated U2OS cells). Format: cell-based. The method, then: Compounds can be screened for their ability to inhibit intracellular GCN2 using an AlphaScreen assay (Perkin Elmer) to detect phosphorylation of the GCN2 substrate eIF2α in borrelidin-treated cells. U2OS cells are plated at 5,000 cells per well in 384-well white polystyrene plates (Corning 3570) in McCoy's 5 A media (GIBCO 26600-023) supplemented with 10% foetal bovine serum (SAFC 12103C), Penicillin/Streptomycin solution diluted 1:100 (Sigma P0781), and 2 mM L-glutamine (Sigma G7513), and allowed to adhere overnight at 37° C. in 5% CO2. Compounds are then added to the cell media from a final concentration of 40 μM in 4-fold serial dilutions. Borrelidin (FluoroChem M01440) is immediately added to the wells to a final concentration of 10 μM and the cells are incubated for 1 h at 37° C. in 5% CO2. After 1 h of treatment with borrelidin, the media is removed, and the cells are lysed with lysis buffer (TGR BioSciences TGRLB) at ambient temperature.
An AlphaScreen SureFire P-eIF2α (Ser51) assay kit (Perkin Elmer TGREIF2S) was used to measure levels of eIF2α phosphorylated on Serine 51. Anti-phosphorylated eIF2α Ser51 antibody-linked acceptor beads (TGR BioScience 6760617) are added to the cell homogenate (diluted 1:250 into a mixture of activation (TGR BioScience TGRAB) and reaction buffer (TGR BioScience TGREIF2S) prepared immediately before use). The plate is then incubated for 2 h at ambient temperature in the dark. Anti-eIF2α antibody-linked donor beads (TGR BioScience 6760617) were then added (diluted 1:100 in dilution buffer (TGR BioScience TGRDB) prepared immediately before use). The plate is then incubated overnight at ambient temperature in the dark.
Plates are analyzed on an Alpha Technology-compatible PHERAstar FS plate reader (BMG Labtech Version 1.14) to quantify phosphorylated eIF2α Ser51 levels. The percentage inhibition of phosphorylated eIF2α is calculated by comparison to control wells stimulated with borrelidin alone.
A general note: In Alpha technology, singlet oxygen from a donor bead excites a nearby acceptor bead.

Where [2] appears, read: Enzyme activity for compounds of Formula IV, Ki(app), 25° C.
[3] abbreviates: compounds of Formula IV, biomarker assay, phosphorylated eIF2α Ser51 in borrelidin-treated U2OS cells.
Where [4] appears, read: compounds of Formula II, 4 nM GCN2 kinase.
Where [5] appears, read: compounds of Formula II, biomarker assay, phosphorylated eIF2α Ser51 in borrelidin-treated U2OS cells.

Each structure is given as a SMILES string. pIC50, pKi: −log10 of the molar value. Like-named read-outs stand apart in the source and are kept apart here. A value given as a limit tells only on which side of the number the result lay.

24 compounds from US10988477B2 (Merck Patent GmbH, priority 2018, dated 2021) can be followed below.

What is called pKi is the negative decadic logarithm of the Ki, by convention in mol/L. The term pIC50 denotes the IC50 on a negative log10 scale, so that one unit is a factor of ten.

intracellular GCN2 (phosphorylation of the GCN2 substrate eIF2α), sequence (Q9P2K8 whole entry): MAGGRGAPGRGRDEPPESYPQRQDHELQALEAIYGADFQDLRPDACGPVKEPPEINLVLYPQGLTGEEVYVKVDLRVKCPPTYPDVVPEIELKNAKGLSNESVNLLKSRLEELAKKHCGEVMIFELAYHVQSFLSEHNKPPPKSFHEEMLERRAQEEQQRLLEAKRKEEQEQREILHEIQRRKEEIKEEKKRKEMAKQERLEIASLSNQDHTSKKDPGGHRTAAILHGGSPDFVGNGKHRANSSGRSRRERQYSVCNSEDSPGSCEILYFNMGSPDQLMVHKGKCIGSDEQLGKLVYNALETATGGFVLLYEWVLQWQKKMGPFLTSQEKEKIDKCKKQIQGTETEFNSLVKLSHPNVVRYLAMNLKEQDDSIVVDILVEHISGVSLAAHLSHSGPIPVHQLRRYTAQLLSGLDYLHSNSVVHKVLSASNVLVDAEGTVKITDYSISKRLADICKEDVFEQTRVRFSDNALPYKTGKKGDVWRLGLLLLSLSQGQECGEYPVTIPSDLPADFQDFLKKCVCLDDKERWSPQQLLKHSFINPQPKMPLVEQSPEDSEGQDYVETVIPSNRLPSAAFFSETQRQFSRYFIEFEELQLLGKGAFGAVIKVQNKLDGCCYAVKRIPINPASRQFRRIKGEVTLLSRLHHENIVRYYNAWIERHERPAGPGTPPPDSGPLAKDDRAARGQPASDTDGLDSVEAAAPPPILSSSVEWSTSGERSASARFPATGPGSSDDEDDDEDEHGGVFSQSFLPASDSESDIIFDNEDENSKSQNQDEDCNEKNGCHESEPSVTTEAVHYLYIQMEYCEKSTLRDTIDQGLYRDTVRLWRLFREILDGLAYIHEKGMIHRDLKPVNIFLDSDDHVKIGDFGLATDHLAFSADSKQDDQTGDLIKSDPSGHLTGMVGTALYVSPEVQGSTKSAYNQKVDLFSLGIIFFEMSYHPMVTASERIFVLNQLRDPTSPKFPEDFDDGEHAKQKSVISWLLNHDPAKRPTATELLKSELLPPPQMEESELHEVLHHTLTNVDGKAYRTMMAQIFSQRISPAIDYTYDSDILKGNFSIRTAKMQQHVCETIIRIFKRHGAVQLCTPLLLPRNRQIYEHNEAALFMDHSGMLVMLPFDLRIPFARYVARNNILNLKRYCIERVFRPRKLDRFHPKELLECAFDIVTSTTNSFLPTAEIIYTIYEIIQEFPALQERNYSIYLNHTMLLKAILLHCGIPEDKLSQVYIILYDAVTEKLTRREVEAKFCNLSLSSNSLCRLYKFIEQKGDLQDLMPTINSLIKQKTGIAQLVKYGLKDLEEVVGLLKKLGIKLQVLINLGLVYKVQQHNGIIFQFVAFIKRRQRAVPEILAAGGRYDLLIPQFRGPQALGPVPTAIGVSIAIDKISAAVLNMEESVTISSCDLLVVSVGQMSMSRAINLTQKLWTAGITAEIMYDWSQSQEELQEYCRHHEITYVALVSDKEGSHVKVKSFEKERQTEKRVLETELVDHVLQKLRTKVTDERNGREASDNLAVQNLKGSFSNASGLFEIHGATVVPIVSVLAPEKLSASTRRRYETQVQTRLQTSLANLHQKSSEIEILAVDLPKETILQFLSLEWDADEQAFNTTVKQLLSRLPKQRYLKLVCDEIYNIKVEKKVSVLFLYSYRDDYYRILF
GCN2 kinase, sequence (Q9P2K8 whole entry): as above

With `CN(C1CCCN(c2ccnc(-c3cnc4cnc(C(F)F)cn34)n2)C1)S(C)(=O)=O` (stereo not drawn) [IV-168, N-(1-(2-(6-(Difluoromethyl)imidazo[1,2-a]pyrazin-3-yl)pyrimidin-4-yl)piperidin-3-yl)-N-methylmethanesulfonamide], the pKi at GCN2 kinase (setting [2]) was 6.00 to 7.00. This compound showed a pIC50 in assay [1] (setting [3]) of less than 5.30.
With `NC(=O)C1CCN(c2cc(-c3cnc4ccc(C(F)F)nn34)ncn2)C1` (stereo not drawn) [II-399, 1-(6-(6-(Difluoromethyl)imidazo[1,2-b]pyridazin-3-yl)pyrimidin-4-yl)pyrrolidine-3-carboxamide], the pKi on GCN2 kinase (setting [4]) is 6.00 to 8.00. In assay [1] (setting [5]), the pIC50 is less than 5.30.
`N#Cc1cn2c(-c3nccc(N4CCOC(c5cn[nH]c5)C4)n3)cnc2cn1` (stereo not drawn) [IV-18, 3-(4-(2-(1H-Pyrazol-4-yl)morpholino)pyrimidin-2-yl)imidazo[1,2-a]pyrazine-6-carbonitrile] showed a pKi on GCN2 kinase (setting [2]) greater than 8.00. The compound also gave a pIC50 in assay [1] (setting [3]) of 5.30 to 6.30.
The corresponding values for `C[C@H]1[C@@H](c2cn[nH]c2)OCCN1c1ccnc(-c2cnc3cnc(C(F)(F)F)cn23)n1` (racemic) [IV-215, Cis-3-Methyl-2-(1H-pyrazol-4-yl)-4-(2-(6-(trifluoromethyl)imidazo[1,2-a]pyrazin-3-yl)pyrimidin-4-yl)morpholine] are 7.00 to 8.00 and greater than 6.30.
As to `O=C1OCC2CN(c3ccnc(-c4cnc5cnc(C(F)F)cn45)n3)CCN12` (stereo not drawn) [IV-100, 7-(2-(6-(Difluoromethyl)imidazo[1,2-a]pyrazin-3-yl)pyrimidin-4-yl)hexahydro-3H-oxazolo[3,4-a]pyrazin-3-one], the pKi at GCN2 kinase (setting [2]) was 6.00 to 7.00. In assay [1] (setting [3]), the pIC50 is less than 5.30.
Take `C[C@@H]1CN(c2ccnc(-c3cnc4cnc(Cl)cn34)n2)C[C@H](c2cn[nH]c2)N1` (racemic) [IV-206, Cis-6-Chloro-3-(4-(3-methyl-5-(H-pyrazol-4-yl)piperazin-1-yl)pyrimidin-2-yl)imidazo[1,2-a]pyrazine]: on GCN2 kinase (setting [2]), the pKi was 7.00 to 8.00. The compound also showed a pIC50 in assay [1] (setting [3]) of 5.30 to 6.30.
The compound `CC1C(C(N)=O)CCCN1c1ccnc(-c2cnc3cnc(C(F)(F)F)cn23)n1` (single isomer, unassigned) [IV-499, 2-Methyl-1-(2-(6-(trifluoromethyl)imidazo[1,2-a]pyrazin-3-yl)pyrimidin-4-yl)piperidine-3-carboxamide] showed a pKi at GCN2 kinase (setting [2]) greater than 8.00. For the same compound, the negative logarithm of the IC50 (pIC50) in assay [1] (setting [3]) was 5.30 to 6.30.
With `CC(NS(C)(=O)=O)C1CN(c2ccnc(-c3cnc4ccc(C(F)F)nn34)c2)CCO1` (stereo not drawn) [II-105, N-(1-(4-(2-(6-(Difluoromethyl)imidazo[1,2-b]pyridazin-3-yl)pyridin-4-yl)morpholin-2-yl)ethyl)methanesulfonamide], the pKi at GCN2 kinase (setting [4]) is greater than 8.00. Further, in assay [1] (setting [5]), the pIC50 was 5.30 to 6.30.
In the case of `Cc1[nH]ncc1C1CN(c2ccnc(-c3cnc4cnc(C(F)(F)F)cn34)n2)CC(C)N1` (single isomer, unassigned) [IV-459, 3-(4-(3-Methyl-5-(5-methyl-1H-pyrazol-4-yl)piperazin-1-yl)pyrimidin-2-yl)-6-(trifluoromethyl)imidazo[1,2-a]pyrazine], on GCN2 kinase (setting [2]), the pKi is 7.00 to 8.00. Moreover, the pIC50 in assay [1] (setting [3]) is 5.30 to 6.30.
On GCN2 kinase (setting [4]), `CC1(NS(C)(=O)=O)CCCN(c2cc(-c3cnc4ccc(C(F)F)nn34)ncn2)C1` (stereo not drawn) [II-445, N-(1-(6-(6-(Difluoromethyl)imidazo[1,2-b]pyridazin-3-yl)pyrimidin-4-yl)-3-methylpiperidin-3-yl)methanesulfonamide] gave a pKi of 6.00 to 8.00. Besides, the pIC50 in assay [1] (setting [5]) is less than 5.30.
On to `CS(=O)(=O)NCC1(O)CCCN(c2cc(-c3cnc4ccc(C(F)F)nn34)ncn2)C1` (stereo not drawn) [II-158, N-((1-(6-(6-(Difluoromethyl)imidazo[1,2-b]pyridazin-3-yl)pyrimidin-4-yl)-3-hydroxypiperidin-3-yl)methyl)methanesulfonamide], for which, on GCN2 kinase (setting [4]), the pKi is 6.00 to 8.00. The pIC50 in assay [1] (setting [5]) was 5.30 to 6.30.
As for `NC(=O)[C@H]1CCCN(c2cc(-c3cnc4ccc(Cl)nn34)ccn2)C1` [II-189, (S)-1-(4-(6-Chloroimidazo[1,2-b]pyridazin-3-yl)pyridin-2-yl)piperidine-3-carboxamide], on GCN2 kinase (setting [4]), the pKi was 6.00 to 8.00. In assay [1] (setting [5]), the pIC50 was 5.30 to 6.30.
`CS(=N)(=O)CC1CCCN(c2ccnc(-c3cnc4sc(C(F)(F)F)cn34)n2)C1` (racemic) [Compound V-18, Imino(methyl)((1-(2-(2-(trifluoromethyl)imidazo[2,1-b]thiazol-5-yl)pyrimidin-4-yl)piperidin-3-yl)methyl)-λ^6-sulfanone]: the pKi on GCN2 kinase (compounds of Formula V, 4 nM GCN2 kinase) was 6.00 to 7.00. For the same compound, the pIC50 in assay [1] (compounds of Formula V, U2OS cells, 10 μM borrelidin, 1 h, read-out: GCN2 Biomarker (IC50)) is less than 5.30.
In turn, `CC(=O)N1CCN(c2cccc(-c3cnc4cnc(-n5cccn5)cn34)n2)CC1` [IV-209, 1-(4-(6-(6-(1H-Pyrazol-1-yl)imidazo[1,2-a]pyrazin-3-yl)pyridin-2-yl)piperazin-1-yl)ethan-1-one] had a pKi on GCN2 kinase (setting [2]) greater than 8.00. This compound also had a pIC50 in assay [1] (setting [3]) of 5.30 to 6.30.
As for `CC1CN(c2cc(-c3cnc4ccc(C(F)F)nn34)ccn2)CC(CNS(C)(=O)=O)O1` (stereo not drawn) [II-118, N-((4-(4-(6-(Difluoromethyl)imidazo[1,2-b]pyridazin-3-yl)pyridin-2-yl)-6-methylmorpholin-2-yl)methyl)methanesulfonamide], on GCN2 kinase (setting [4]), the pKi was 6.00 to 8.00. The compound also had a pIC50 in assay [1] (setting [5]) of 5.30 to 6.30.
For `CC(NS(C)(=O)=O)C1CN(c2cc(-c3cnc4ccc(C(F)F)nn34)ncn2)CCN1C` (stereo not drawn) [II-474, N-(1-(4-(6-(6-(Difluoromethyl)imidazo[1,2-b]pyridazin-3-yl)pyrimidin-4-yl)-1-methylpiperazin-2-yl)ethyl)methanesulfonamide], the pKi on GCN2 kinase (setting [4]) was 6.00 to 8.00. Also, the pIC50 in assay [1] (setting [5]) is 5.30 to 6.30.
On GCN2 kinase (setting [2]), `CS(=O)(=O)NC[C@@H]1CN(c2nc(-c3cnc4cnc(C(F)(F)F)cn34)ns2)CCO1` [IV-705, (S)—N-((4-(3-(6-(trifluoromethyl)imidazo[1,2-a]pyrazin-3-yl)-1,2,4-thiadiazol-5-yl)morpholin-2-yl)methyl)methanesulfonamide] gave a pKi of 6.00 to 7.00. In assay [1] (setting [3]), this compound showed a pIC50 of less than 5.30.
Consider `CN1C(=O)CN(c2cc(-c3cnc4ccc(C(F)F)nn34)ncn2)C[C@H]1CNS(C)(=O)=O` [II-7, (S)—N-((4-(6-(6-(Difluoromethyl)imidazo[1,2-b]pyridazin-3-yl)pyrimidin-4-yl)-1-methyl-6-oxopiperazin-2-yl)methyl)methanesulfonamide], for which the pKi on GCN2 kinase (setting [4]) was less than 6.00. Further, the pIC50 in assay [1] (setting [5]) was less than 5.30.
`CC(NS(C)(=O)=O)C1CN(c2cc(-c3cnc4ccc(C(F)F)nn34)ncn2)CCO1` (stereo not drawn) [II-159, N-(1-(4-(6-(6-(Difluoromethyl)imidazo[1,2-b]pyridazin-3-yl)pyrimidin-4-yl)morpholin-2-yl)ethyl)methanesulfonamide]: the pKi on GCN2 kinase (setting [4]) is 6.00 to 8.00. In assay [1] (setting [5]), this compound gave a pIC50 of 5.30 to 6.30.
The like results for `CC1C(CNS(C)(=O)=O)N(C)CCN1c1cc(-c2cnc3ccc(C(F)F)nn23)ncn1` (single isomer, unassigned) [II-364, N-((4-(6-(6-(difluoromethyl)imidazo[1,2-b]pyridazin-3-yl)pyrimidin-4-yl)-1,3-dimethylpiperazin-2-yl)methyl)methanesulfonamide] were, in that order, greater than 8.00 and greater than 6.30.
`CCC1C(CNS(C)(=O)=O)CCCN1c1cc(-c2cnc3ccc(C(F)F)nn23)ncn1` (single isomer, unassigned) [II-417]: the negative logarithm of the Ki (pKi) at GCN2 kinase (setting [4]) is 6.00 to 8.00. The same compound gave a pIC50 in assay [1] (setting [5]) of 5.30 to 6.30.
Take `CS(=O)(=O)NCC1CN(c2cc(-c3cnc4ccc(C(F)F)nn34)ncn2)CC(C2CC2)O1` (stereo not drawn) [II-440, N-((6-Cyclopropyl-4-(6-(6-(difluoromethyl)imidazo[1,2-b]pyridazin-3-yl)pyrimidin-4-yl)morpholin-2-yl)methyl)methanesulfonamide]: at GCN2 kinase (setting [4]), the pKi was 6.00 to 8.00. Further, the pIC50 in assay [1] (setting [5]) is 5.30 to 6.30.
The like results for `FC(F)c1ccc2ncc(-c3cc(C4CCCN(C5COC5)C4)ncn3)n2n1` (stereo not drawn) [II-180, 6-(Difluoromethyl)-3-(6-(1-(oxetan-3-yl)piperidin-3-yl)pyrimidin-4-yl)imidazo[1,2-b]pyridazine] were, in that order, 6.00 to 8.00 and less than 5.30.
On to `CC1C(c2cn[nH]c2)NCCN1c1ccnc(-c2cnc3cnccn23)n1` (stereo not drawn) [IV-397, 3-(4-(2-Methyl-3-(1H-pyrazol-4-yl)piperazin-1-yl)pyrimidin-2-yl)imidazo[1,2-a]pyrazine], for which the pKi at GCN2 kinase (setting [2]) is 6.00 to 7.00. Further, the pIC50 in assay [1] (setting [3]) is less than 5.30.
